According to patent US7125842B2, “Anti-fungal compounds and methods of use” (CanBas Co. Ltd., priority 2003, dated 2006):

Experiments:
[1] = test system: Candida albicans (ATCC 10231); assay: Minimal growth inhibitory concentration by turbidity, Candida albicans; assay type: cell-based; conditions: Candida albicans ATCC 10231, fluid Sabouraud medium, 37 degree, turbidity one day after inoculation
Procedure: (§1) Candida albicans was obtained from ATCC (ATCC 10231) and cultured in fluid Sabouraud medium at 37 degree. The turbidity was measured one day after the innoculation and treatment with CBP501 at 0.03, 0.1, 0.3, 1, 3, 10, 30, 100 μg/ml. Candida glabrata was obtained from ATCC (ATCC 36583) and cultured in fluid Sabouraud medium at 28 degree. The turbidity was measured two days after the innoculation and treatment with CBP501 at 0.03, 0.1, 0.3, 1, 3, 10, 30, 100 μg/ml. Cryptococcus neoformans was obtained from ATCC (ATCC 24067) and cultured in fluid Sabouraud medium at 37 degree. The turbidity was measured two days after the innoculation and treatment with CBP501 at 0.03, 0.1, 0.3, 1, 3, 10, 30, 100 μg/ml. Trichophyton mentagroohytes was obtained from ATCC (ATCC 9533) and cultured in potato dextrose broth at 28 degree. The turbidity was measured three days after the innoculation and treatment with CBP501 at 0.03, 0.1, 0.3, 1, 3, 10, 30, 100 μg/ml. Minimal growth inhibitory concentrations were determined as the concentration of minimal CBP501 where the turbidity was not increased (Table 2).

ATM = biological target: T1, ATM (Homo sapiens, UniProt Q13315); assay: In vitro phosphorylation inhibition, ATM (ELISA); assay type: biochemical; conditions: CBP501 0.5, 5, 50 uM, 30° C., compared to cyclin-dependent kinases, PKA and PKC (FIG. 1)
T1 construct: ATM and ATR: Full length recombinant human, 293T cells; host or cells: 293T cells
T1 sequence (Q13315 whole entry): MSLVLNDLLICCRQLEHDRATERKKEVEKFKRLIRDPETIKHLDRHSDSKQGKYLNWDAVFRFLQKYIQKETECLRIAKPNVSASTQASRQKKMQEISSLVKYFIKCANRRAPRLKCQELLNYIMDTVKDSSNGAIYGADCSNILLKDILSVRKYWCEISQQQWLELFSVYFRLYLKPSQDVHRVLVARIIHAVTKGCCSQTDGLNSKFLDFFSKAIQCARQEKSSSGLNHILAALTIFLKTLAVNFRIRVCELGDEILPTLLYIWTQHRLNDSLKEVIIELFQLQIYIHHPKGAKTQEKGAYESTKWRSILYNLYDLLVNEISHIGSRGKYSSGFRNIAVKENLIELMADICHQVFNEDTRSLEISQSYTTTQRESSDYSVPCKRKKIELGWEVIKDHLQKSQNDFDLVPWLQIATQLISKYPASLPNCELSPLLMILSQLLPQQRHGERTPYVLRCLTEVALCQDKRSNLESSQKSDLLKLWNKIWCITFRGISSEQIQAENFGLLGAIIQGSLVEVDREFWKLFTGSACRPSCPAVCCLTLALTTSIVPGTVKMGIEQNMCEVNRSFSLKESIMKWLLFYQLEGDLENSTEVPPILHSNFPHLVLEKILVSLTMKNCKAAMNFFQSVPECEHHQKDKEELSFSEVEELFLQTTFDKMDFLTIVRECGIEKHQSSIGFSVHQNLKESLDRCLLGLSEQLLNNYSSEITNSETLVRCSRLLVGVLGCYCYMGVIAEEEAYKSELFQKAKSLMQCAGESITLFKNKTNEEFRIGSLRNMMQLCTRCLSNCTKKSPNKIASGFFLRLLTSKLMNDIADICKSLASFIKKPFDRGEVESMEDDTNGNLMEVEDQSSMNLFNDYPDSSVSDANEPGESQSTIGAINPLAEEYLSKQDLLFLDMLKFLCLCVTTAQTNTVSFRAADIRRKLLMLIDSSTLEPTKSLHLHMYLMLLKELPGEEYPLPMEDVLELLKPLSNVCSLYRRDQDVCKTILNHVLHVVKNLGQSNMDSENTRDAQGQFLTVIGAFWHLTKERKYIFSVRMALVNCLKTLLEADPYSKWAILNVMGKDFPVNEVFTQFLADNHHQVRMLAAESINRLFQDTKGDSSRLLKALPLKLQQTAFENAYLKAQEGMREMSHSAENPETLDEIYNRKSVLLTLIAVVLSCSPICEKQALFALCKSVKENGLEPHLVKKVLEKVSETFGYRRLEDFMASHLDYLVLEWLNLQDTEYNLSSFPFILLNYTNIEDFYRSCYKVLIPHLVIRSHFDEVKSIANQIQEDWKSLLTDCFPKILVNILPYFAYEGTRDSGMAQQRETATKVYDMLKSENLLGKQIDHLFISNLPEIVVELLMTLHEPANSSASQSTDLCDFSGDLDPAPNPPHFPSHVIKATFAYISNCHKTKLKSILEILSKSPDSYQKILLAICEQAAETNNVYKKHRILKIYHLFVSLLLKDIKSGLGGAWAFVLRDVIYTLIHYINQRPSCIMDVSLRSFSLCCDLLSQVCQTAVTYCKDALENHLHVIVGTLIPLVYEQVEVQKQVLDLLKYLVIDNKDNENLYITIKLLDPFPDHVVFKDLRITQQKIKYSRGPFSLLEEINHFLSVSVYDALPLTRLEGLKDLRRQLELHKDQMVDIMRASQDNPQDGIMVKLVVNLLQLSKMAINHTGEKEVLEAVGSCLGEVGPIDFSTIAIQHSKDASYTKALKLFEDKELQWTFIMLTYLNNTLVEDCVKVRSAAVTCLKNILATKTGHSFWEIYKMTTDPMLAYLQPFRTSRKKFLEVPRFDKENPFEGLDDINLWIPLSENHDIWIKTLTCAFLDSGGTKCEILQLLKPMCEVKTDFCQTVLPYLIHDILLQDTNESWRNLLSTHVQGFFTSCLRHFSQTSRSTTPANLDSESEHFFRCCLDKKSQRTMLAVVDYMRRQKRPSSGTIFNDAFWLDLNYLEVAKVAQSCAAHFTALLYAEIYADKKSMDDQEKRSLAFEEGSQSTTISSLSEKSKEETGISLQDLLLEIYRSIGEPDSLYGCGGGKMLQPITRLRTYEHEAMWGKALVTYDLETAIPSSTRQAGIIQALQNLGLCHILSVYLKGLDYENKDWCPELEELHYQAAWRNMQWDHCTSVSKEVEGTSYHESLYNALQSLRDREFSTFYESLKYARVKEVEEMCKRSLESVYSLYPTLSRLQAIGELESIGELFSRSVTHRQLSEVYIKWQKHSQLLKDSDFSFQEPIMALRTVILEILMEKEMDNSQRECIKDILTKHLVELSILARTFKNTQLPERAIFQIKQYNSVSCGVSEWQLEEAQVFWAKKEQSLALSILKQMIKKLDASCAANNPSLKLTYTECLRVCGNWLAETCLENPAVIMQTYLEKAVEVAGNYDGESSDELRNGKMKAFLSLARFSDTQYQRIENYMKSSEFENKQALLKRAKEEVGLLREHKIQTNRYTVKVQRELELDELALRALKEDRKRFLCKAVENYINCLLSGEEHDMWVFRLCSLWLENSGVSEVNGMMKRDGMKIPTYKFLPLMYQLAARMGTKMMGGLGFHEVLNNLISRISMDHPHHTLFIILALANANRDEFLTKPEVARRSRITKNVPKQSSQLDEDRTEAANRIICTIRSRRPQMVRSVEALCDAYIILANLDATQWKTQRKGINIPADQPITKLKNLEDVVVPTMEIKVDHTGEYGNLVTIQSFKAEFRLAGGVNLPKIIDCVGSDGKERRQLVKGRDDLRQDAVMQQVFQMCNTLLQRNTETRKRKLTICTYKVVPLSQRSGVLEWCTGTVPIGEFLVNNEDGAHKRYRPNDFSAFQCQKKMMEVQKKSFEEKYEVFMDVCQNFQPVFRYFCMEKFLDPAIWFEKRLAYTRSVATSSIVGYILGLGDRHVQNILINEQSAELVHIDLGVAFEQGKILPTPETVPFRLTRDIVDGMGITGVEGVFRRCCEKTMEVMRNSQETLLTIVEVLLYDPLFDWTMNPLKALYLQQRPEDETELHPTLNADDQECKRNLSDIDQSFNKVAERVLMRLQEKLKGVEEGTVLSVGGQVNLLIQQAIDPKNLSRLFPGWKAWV
Procedure: (§2) Source of kinases, measurement method, substrate, first antibody, second antibody, reaction buffer, reaction volume, ATP concentration, and reaction time are as follows. ATM and ATR: Full length recombinant human, 293T cells, enzyme linked immunosorbent assay (ELISA), GST-p53 (aal -99), anti-p53-phosphorylated Serl 5, Horse radish peroxidase (HRP)-labeled anti-rabbit IgG, 1×Mg/Mn kinase buffer (20 mM Hepes-KOH (pH7.5), 1 mM DTT, 80 ug/ml BSA, 10 mM MgCl2, 10 mM MnCl2), 50 ul, 100 uM, and 60 min. Chk1, Chk2 and c-Tak1: Full length recombinant human from SF-9 cells for Chk1, Full length recombinant human from E. Coli for Chk2 and Full length recombinant human from SF-9 cells for c-Tak1, respectively, ELISA, GST-Cdc25C (aa167–267), anti-Cdc25C-phosphorylated Ser216, HRP-labelled anti-mouse IgG, 1×Mg kinase buffer (20 mM Hepes-KOH (pH7.5), 1 mM DTT, 80 ug/ml BSA, 10 mM MgCl2), 50 ul, 50 uM, and 60 min. PLK-1: Human full length GST fusion, E. Coli, ELISA, GST fusion protein Y, Anti-phosphorylated Ser/Thr monoclonal, HRP-labelled anti-mousr IgG, 1×Mg kinase buffer, 30 ul, 50 uM, and 60 min. […]
(§3) All incubations were at 30° C. […] The phosphorylated substrate was detected with either ELISA or RIA as described above. […] The quantity of phosphorylated substrate for each kinase reaction without CBP501 was nominated as 100%.

yeast AH109 = assay: Growth inhibition of yeast AH109 on YAPD plate; assay type: cell-based, Saccaromices Cerevisie; conditions: 1 hr incubation at 30° in liquid YAPD, then 3 days on YAPD agarose plate (FIG. 2)
Procedure: Cell culture Saccaromices Cerevisie AH109 was purchased from CLONTECH (Palo Alto, Calif.). YAPD plates were prepared using YPD agar purchased from CLONTECH and adenine purchased from Sigma-Aldrich Co. The cells were cultured at 30 degree.
Logarithmically growing yeast AH109 in liquid medium (YAPD) was diluted to 1 to 10 with warm liquid YAPD medium with or without CBP501 and/or amphotericin B at the indicated doses. After 1 hr incubation at 30° whole solution was poured onto the YAPD agarose plate. The plate was then incubated 3 days and the samples were phtographed (FIG. 2).

[2] = test system: Candida glabrata (ATCC 36583); assay: Minimal growth inhibitory concentration by turbidity, Candida glabrata; assay type: cell-based; conditions: Candida glabrata ATCC 36583, fluid Sabouraud medium, 28 degree, turbidity two days after inoculation
Procedure: as §1

CHK2 = biological target: T2, CHK2 (Homo sapiens, UniProt O96017); assay: In vitro phosphorylation inhibition, CHK2 (ELISA); assay type: biochemical; conditions: CBP501 0.5, 5, 50 uM, 30° C., compared to cyclin-dependent kinases, PKA and PKC (FIG. 1)
T2 construct: Full length recombinant human from E. Coli for Chk2; host or cells: E. coli
T2 sequence (O96017 whole entry): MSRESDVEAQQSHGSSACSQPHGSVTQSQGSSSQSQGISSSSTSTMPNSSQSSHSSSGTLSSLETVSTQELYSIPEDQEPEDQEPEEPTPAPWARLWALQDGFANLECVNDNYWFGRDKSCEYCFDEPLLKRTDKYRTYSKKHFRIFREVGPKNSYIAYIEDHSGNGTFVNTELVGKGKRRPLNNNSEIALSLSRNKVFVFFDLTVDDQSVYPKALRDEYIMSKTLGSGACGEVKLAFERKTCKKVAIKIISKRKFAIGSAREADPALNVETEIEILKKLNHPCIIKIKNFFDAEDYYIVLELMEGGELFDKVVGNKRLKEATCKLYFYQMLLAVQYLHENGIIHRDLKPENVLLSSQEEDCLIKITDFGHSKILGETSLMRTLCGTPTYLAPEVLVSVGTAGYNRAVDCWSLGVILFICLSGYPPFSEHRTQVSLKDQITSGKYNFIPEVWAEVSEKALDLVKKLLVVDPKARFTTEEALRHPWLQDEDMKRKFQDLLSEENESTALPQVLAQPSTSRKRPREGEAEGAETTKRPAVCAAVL
Procedure: as §2, §3

CHK1 = biological target: T3, CHK1 (Homo sapiens, UniProt O14757); assay: In vitro phosphorylation inhibition, CHK1 (ELISA); assay type: biochemical; conditions: CBP501 0.5, 5, 50 uM, 30° C., compared to cyclin-dependent kinases, PKA and PKC (FIG. 1)
T3 construct: Full length recombinant human from SF-9 cells for Chk1; host or cells: SF-9 cells
T3 sequence (O14757 1-476): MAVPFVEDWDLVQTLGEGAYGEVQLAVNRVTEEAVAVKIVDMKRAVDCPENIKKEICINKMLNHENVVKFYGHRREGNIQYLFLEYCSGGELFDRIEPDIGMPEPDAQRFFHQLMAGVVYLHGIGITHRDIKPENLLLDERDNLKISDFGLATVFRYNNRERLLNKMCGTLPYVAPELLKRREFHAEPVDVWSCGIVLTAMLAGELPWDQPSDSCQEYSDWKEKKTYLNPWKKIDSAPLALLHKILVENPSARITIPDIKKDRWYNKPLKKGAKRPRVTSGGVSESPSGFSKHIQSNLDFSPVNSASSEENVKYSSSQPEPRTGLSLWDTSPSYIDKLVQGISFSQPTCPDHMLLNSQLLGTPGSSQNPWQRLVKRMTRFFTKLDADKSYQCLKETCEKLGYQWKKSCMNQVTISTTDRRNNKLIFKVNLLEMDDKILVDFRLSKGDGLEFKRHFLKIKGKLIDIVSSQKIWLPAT
Procedure: as §2, §3

ATR = biological target: T4, ATR (Homo sapiens, UniProt Q13535); assay: In vitro phosphorylation inhibition, ATR (ELISA); assay type: biochemical; conditions: CBP501 0.5, 5, 50 uM, 30° C., compared to cyclin-dependent kinases, PKA and PKC (FIG. 1)
T4 construct: ATM and ATR: Full length recombinant human, 293T cells; host or cells: 293T cells
Procedure: as §2, §3

Wee1 = biological target: T5, Wee1 (Homo sapiens, UniProt P30291); assay: In vitro phosphorylation inhibition, Wee1 (ELISA); assay type: biochemical; conditions: CBP501 0.5, 5, 50 uM, 30° C., compared to cyclin-dependent kinases, PKA and PKC (FIG. 1)
T5 construct: Weel: Human fulllength recombinant with GST fusion, E. Coli; GST; host or cells: E. coli
T5 sequence (P30291 whole entry, the tested form may be a part): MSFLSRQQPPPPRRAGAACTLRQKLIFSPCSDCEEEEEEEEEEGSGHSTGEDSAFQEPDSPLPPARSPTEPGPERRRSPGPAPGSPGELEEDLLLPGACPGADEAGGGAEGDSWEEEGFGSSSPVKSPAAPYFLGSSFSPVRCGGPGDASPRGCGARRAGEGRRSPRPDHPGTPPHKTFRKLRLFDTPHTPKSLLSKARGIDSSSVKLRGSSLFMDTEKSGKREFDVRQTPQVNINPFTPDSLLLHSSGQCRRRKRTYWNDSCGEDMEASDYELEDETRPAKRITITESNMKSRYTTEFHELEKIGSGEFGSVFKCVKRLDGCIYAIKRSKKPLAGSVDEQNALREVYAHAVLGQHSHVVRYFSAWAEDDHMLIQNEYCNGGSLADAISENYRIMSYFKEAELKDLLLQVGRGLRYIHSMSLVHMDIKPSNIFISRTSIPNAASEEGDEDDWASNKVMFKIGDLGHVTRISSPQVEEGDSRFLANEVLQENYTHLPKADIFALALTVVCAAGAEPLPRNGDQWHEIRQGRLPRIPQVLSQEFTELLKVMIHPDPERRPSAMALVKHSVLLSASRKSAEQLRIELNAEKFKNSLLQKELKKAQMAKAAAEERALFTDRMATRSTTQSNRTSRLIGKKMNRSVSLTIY
Procedure: as §2, §3

[3] = test system: Trichophyton mentagroohytes (ATCC 9533); assay: Minimal growth inhibitory concentration by turbidity, Trichophyton mentagroohytes; assay type: cell-based; conditions: Trichophyton mentagroohytes ATCC 9533, potato dextrose broth, 28 degree, turbidity three days after inoculation
Procedure: as §1

PLK1 = biological target: T6, PLK1 (Homo sapiens, UniProt P53350); assay: In vitro phosphorylation inhibition, PLK1 (ELISA); assay type: biochemical; conditions: CBP501 0.5, 5, 50 uM, 30° C., compared to cyclin-dependent kinases, PKA and PKC (FIG. 1)
T6 construct: PLK-1: Human full length GST fusion, E. Coli; GST; host or cells: E. coli
T6 sequence (P53350 whole entry, the tested form may be a part): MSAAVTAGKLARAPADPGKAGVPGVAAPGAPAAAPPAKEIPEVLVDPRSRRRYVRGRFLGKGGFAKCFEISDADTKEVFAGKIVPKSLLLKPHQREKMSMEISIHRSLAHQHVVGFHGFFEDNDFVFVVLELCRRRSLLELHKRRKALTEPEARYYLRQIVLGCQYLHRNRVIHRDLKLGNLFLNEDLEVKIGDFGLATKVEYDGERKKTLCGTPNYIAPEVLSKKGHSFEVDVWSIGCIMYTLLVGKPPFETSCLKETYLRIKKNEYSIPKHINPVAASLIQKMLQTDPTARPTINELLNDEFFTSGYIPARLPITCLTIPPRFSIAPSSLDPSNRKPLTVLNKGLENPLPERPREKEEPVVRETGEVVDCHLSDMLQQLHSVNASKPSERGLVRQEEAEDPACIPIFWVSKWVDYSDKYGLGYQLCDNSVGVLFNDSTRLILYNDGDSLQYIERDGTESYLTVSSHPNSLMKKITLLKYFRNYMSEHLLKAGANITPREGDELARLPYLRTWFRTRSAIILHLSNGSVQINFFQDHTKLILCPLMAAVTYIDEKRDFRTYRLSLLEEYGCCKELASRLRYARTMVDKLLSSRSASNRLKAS
Procedure: as §2, §3

[4] = test system: Cryptococcus neoformans (ATCC 24067); assay: Minimal growth inhibitory concentration by turbidity, Cryptococcus neoformans; assay type: cell-based; conditions: Cryptococcus neoformans ATCC 24067, fluid Sabouraud medium, 37 degree, turbidity two days after inoculation
Procedure: as §1

In the case of “(d-Bpa)(d-Ser)(d-Trp)(d-Ser) (d-Phe2,3,4,5,6-F)(d-Cha)(d-Arg)(d-Arg)(d-Arg)(d-Gln)(d-Arg)(d-Arg) [CBP501]”, the “MIC (minimul inhibitory concentration)” value [1] was 100 µg/mL, the “inhibition of kinase activity (phosphorylation of substrate)” value (“inhibition of kinase activity” below) (ATM) was “strongly inhibited” and the “growth of yeast AH109 on YAPD plate” value (yeast AH109) was “growth inhibition”. The “MIC (minimul inhibitory concentration)” value [2] was 30 µg/mL, the “inhibition of kinase activity” value (CHK2) was “strongly inhibited” and the “inhibition of kinase activity” value (CHK1) was “strongly inhibited”. For the same substance, the “inhibition of kinase activity” value (ATR) was “strongly inhibited”, the “inhibition of kinase activity” value (Wee1) was “strongly inhibited” and the “MIC (minimul inhibitory concentration)” value [3] was 100 µg/mL. The “inhibition of kinase activity” value (PLK1) was “strongly inhibited” and the “MIC (minimul inhibitory concentration)” value [4] was 1 µg/mL.
